Reference: ChEMBL document CHEMBL5346899, “PKM2/PDK1 dual-targeted shikonin derivatives restore the sensitivity of EGFR-mutated NSCLC cells to gefitinib by remodeling glucose metabolism” (Eur J Med Chem, 2023)
Activity calls are given as the source filed them. The calls are words filed in the database; no cut-off is given here.

How the values were obtained:
[1] = tested on: NCI-H1299; test: cells; format: functional, cell-based; settings: Homo sapiens, NCI-H1299, 24 h
Description: Antiproliferative activity against human NCI-H1299 cells assessed as inhibition of cell growth incubated for 24 hrs by CCK-8 assay

[2] = tested on: HCC827; test: cells; format: functional, cell-based; settings: Homo sapiens, HCC827, 24 h
Description: Antiproliferative activity against human HCC827 cells assessed as inhibition of cell growth incubated for 24 hrs by CCK-8 assay

[3] = in vitro; settings: human, HEK293T cells
Description: Cytotoxicity against HEK293T cells assessed as inhibition of cell growth incubated for 24 hrs by CCK-8 assay

[4] = tested on: A549; test: cells; format: functional, cell-based; settings: Homo sapiens, A549, 24 h
Description: Antiproliferative activity against human A549 cells assessed as inhibition of cell growth incubated for 24 hrs by CCK-8 assay

[5] = tested on: NCI-H1975; test: cells; format: functional, cell-based; settings: Homo sapiens, NCI-H1975, 24 h
Description: Antiproliferative activity against human NCI-H1975 cells assessed as inhibition of cell growth incubated for 24 hrs by CCK-8 assay

[6] = tested on: NCI-H1975; test: Induction of apoptosis in human NCI-H1975 cells assessed as early apoptotic cells at 2 micromol/L incubated for 24 hrs by Annexin V-FITC/PI staining based analysis (reference value: 1.88%); format: functional; settings: dose 2 µmol/L, at 2 µM
[7] = tested on: NCI-H1975; test: Induction of mitochondrial transmembrane potential dissipation in human NCI-H1975 cells assessed as cells with high mitochondrial transmembrane potential at 1 micromol/L by FL-1/FL-2 channel based fluorescence analysis (reference value: 97.4%); format: functional; settings: dose 1 µmol/L; at 1 µM
[8] = tested on: A549; test: Induction of apoptosis in human A549 cells assessed as early apoptotic cells at 2 micromol/L incubated for 24 hrs by Annexin V-FITC/PI staining based analysis (reference value: […]%); format: functional; settings: dose 2 µmol/L
[9] = tested on: NCI-H1299; test: Induction of apoptosis in human NCI-H1299 cells assessed as early apoptotic cells at 2 micromol/L incubated for 24 hrs by Annexin V-FITC/PI staining based analysis (reference value: 2.43%); format: functional; settings: dose 2 µmol/L, at 2 µM
[10] = tested on: HCC827; test: Induction of apoptosis in human HCC827 cells assessed as late apoptotic cells at 2 micromol/L incubated for 24 hrs by Annexin V-FITC/PI staining based analysis (reference value: 8.42%); format: functional; settings: dose 2 µmol/L, at 2 µM
[11] = tested on: NCI-H1299; test: Induction of apoptosis in human NCI-H1299 cells assessed as late apoptotic cells at 2 micromol/L incubated for 24 hrs by Annexin V-FITC/PI staining based analysis (reference value: 14.9%); format: functional; settings: dose 2 µmol/L, at 2 µM
[12] = tested on: NCI-H1975; test: Induction of apoptosis in human NCI-H1975 cells assessed as late apoptotic cells at 2 micromol/L incubated for 24 hrs by Annexin V-FITC/PI staining based analysis (reference value: 2.66%); format: functional; settings: dose 2 µmol/L, at 2 µM
[13] = tested on: A549; test: Induction of apoptosis in human A549 cells assessed as late apoptotic cells at 2 micromol/L incubated for 24 hrs by Annexin V-FITC/PI staining based analysis (reference value: 3.18%); format: functional; settings: dose 2 µmol/L, at 2 µM
[14] = tested on: NCI-H1975; test: Induction of mitochondrial transmembrane potential dissipation in human NCI-H1975 cells assessed as cells with low mitochondrial transmembrane potential at 1 micromol/L by FL-1/FL-2 channel based fluorescence analysis (reference value: 2.13%); format: functional; settings: dose 1 µmol/L; at 1 µM
[15] = tested on: HCC827; test: Induction of apoptosis in human HCC827 cells assessed as early apoptotic cells at 2 micromol/L incubated for 24 hrs by Annexin V-FITC/PI staining based analysis (reference value: 9.14%); format: functional; settings: dose 2 µmol/L, at 2 µM
[16] = tested on: NCI-H1299; test: Synergistic antiproliferative activity against human NCI-H1299 cells assessed as cell growth inhibition at 500 micromol/L incubated for 24 hrs in presence of ML265 by CCK-8 analysis; format: functional, cell-based; settings: dose 500.0 µmol/L
[17] = tested on: NCI-H1299; test: Inhibition of glycolysis in human NCI-H1299 cells assessed as reduction in glucose consumption incubated for 24 hrs in presence of ML265 by colorimetric assay; format: functional, cell-based
[18] = tested on: NCI-H1299; test: Induction of apoptosis in human NCI-H1299 cells assessed as live cells at 500 micromol/L incubated for 24 hrs by Annexin V-FITC/PI staining based analysis (reference value: 96.6%); format: functional; settings: dose 500 µmol/L, at 500 µM
[19] = tested on: NCI-H1299; test: Induction of apoptosis in human NCI-H1299 cells assessed as early apoptotic cells at 500 micromol/L incubated for 24 hrs in presence of ML265 by Annexin V-FITC/PI staining based analysis (reference value: 0.772%); format: functional; settings: dose 500 µmol/L, at 500 µM
[20] = tested on: NCI-H1299; test: Synergistic inhibition of NADPH production in human NCI-H1299 cells incubated for 2 hrs in presence of ML265 by NADP+/NADPH assay; format: functional, cell-based
[21] = tested on: NCI-H1299; test: Induction of apoptosis in human NCI-H1299 cells assessed as live cells at 500 micromol/L incubated for 24 hrs in presence of ML265 by Annexin V-FITC/PI staining based analysis (reference value: 96.6%); format: functional; settings: dose 500 µmol/L, at 500 µM
[22] = tested on: NCI-H1299; test: Induction of apoptosis in human NCI-H1299 cells assessed as late apoptotic cells at 500 micromol/L incubated for 24 hrs by Annexin V-FITC/PI staining based analysis (reference value: 2.63%); format: functional; settings: dose 500 µmol/L, at 500 µM
[23] = tested on: NCI-H1299; test: Synergistic induction of oxidative phosphorylation in human NCI-H1299 cells assessed as increase in ATP production in presence of ML265 by luminescence based assay; format: functional, cell-based
[24] = tested on: NCI-H1299; test: Induction of apoptosis in human NCI-H1299 cells assessed as late apoptotic cells at 500 micromol/L incubated for 24 hrs in presence of ML265 by Annexin V-FITC/PI staining based analysis (reference value: 2.63%); format: functional; settings: dose 500 µmol/L, at 500 µM
[25] = tested on: NCI-H1299; test: Inhibition of glycolysis in human NCI-H1299 cells assessed as reduction in lactate production incubated for 1 hrs in presence of ML265 by colorimetric assay; format: functional, cell-based
[26] = tested on: NCI-H1299; test: Induction of apoptosis in human NCI-H1299 cells assessed as dead cells at 500 micromol/L incubated for 24 hrs in presence of ML265 by Annexin V-FITC/PI staining based analysis (reference value: 0.021%); format: functional; settings: dose 500 µmol/L, at 500 µM
[27] = tested on: NCI-H1299; test: Induction of apoptosis in human NCI-H1299 cells assessed as early apoptotic cells at 500 micromol/L incubated for 24 hrs by Annexin V-FITC/PI staining based analysis (reference value: 0.772%); format: functional; settings: dose 500 µmol/L, at 500 µM
[28] = tested on: NCI-H1299; test: Antitumor activity against human NCI-H1299 cells xenografted in mouse assessed as pathological damage to tumor tissue administered in presence of ML265; format: functional
[29] = tested on: NCI-H1299; test: Induction of apoptosis in human NCI-H1299 cells assessed as dead cells at 500 micromol/L incubated for 24 hrs by Annexin V-FITC/PI staining based analysis (reference value: 0.021%); format: functional; settings: dose 500 µmol/L, at 500 µM
[30] = tested on: NCI-H1975; test: Induction of apoptosis in human NCI-H1975 cells assessed as live cells at 10 micromol/L incubated for 24 hrs by Annexin V-FITC/PI staining based analysis (reference value: 88.7%); format: functional; settings: dose 10 µmol/L, at 10 µM
[31] = tested on: NCI-H1975; test: Induction of apoptosis in human NCI-H1975 cells assessed as early apoptotic cells at 10 micromol/L incubated for 24 hrs by Annexin V-FITC/PI staining based analysis (reference value: 2.55%); format: functional; settings: dose 10 µmol/L, at 10 µM
[32] = tested on: NCI-H1975; test: Induction of apoptosis in human NCI-H1975 cells assessed as dead cells at 10 micromol/L incubated for 24 hrs by Annexin V-FITC/PI staining based analysis (reference value: 0.103%); format: functional; settings: dose 10 µmol/L, at 10 µM

Structure (SMILES) | IC50 [1] [µM] | IC50 [2] [µM] | IC50 at 24 h [3] [µM] | IC50 [4] [µM] | IC50 [5] [µM] | further results
COC(=O)[C@H](CS[C@H](CC=C(C)C)C1=CC(=O)c2c(O)ccc(O)c2C1=O)NC(=O)CCCC[C@@H]1CCSC(c2ccc(Cl)cc2)S1 (some centres not stated) | 8.26 | 10.9 | 86 | 11.5 | 8.26 | –
COC(=O)[C@H](CS[C@H](CC=C(C)C)C1=CC(=O)c2c(O)ccc(O)c2C1=O)NC(=O)CCCC[C@@H]1CCSC(c2ccc(C)cc2)S1 (some centres not stated) | 10.5 | 10.4 | 80.4 | 12.4 | 4.12 | –
COC(=O)[C@H](CS[C@H](CC=C(C)C)C1=CC(=O)c2c(O)ccc(O)c2C1=O)NC(=O)CCCC[C@@H]1CCSC(c2ccccc2Cl)S1 (some centres not stated) | 6.73 | 8.31 | 84.5 | 9.56 | 8.3 | –
CC(C)=CC[C@@H](O)C1=CC(=O)c2c(O)ccc(O)c2C1=O [SHIKONIN] | 3.95 | 9.21 | 2.63 | 4.47 | 4.56 | Activity [6]: 8.91%; Activity [7]: 91.3%; Activity [8]: 10.7%; Activity [9]: 4.34%; Activity [10]: 22.1%; Activity [11]: 17.2%; Activity [12]: 9.96%; Activity [13]: 4.66%; Activity [14]: 8.69%; Activity [15]: 27.5%
COC(=O)[C@H](CS[C@H](CC=C(C)C)C1=CC(=O)c2c(O)ccc(O)c2C1=O)NC(=O)CCCC[C@@H]1CCSC(c2ccc(OCc3ccccc3)cc2)S1 (some centres not stated) | 24.8 | 19.3 | 88.7 | 13.3 | 15.7 | –
CN(C)C(=O)c1ccc(S(=O)(=O)c2ccc(NC(=O)[C@@](C)(O)C(F)(F)F)c(Cl)c2)cc1 | – | – | – | – | – | Activity [16]: Active; inhibition [17]: Active; Activity [18]: 59%; Activity [19]: 7.63%; inhibition [20]: Active; Activity [21]: 20.6%; Activity [22]: 12.1%; Activity [23]: Active; Activity [24]: 71.7%; inhibition [25]: Active; Activity [26]: 0%; Activity [27]: 28.9%; Activity [28]: Active; Activity [29]: 0.01%
COC(=O)[C@H](CS[C@H](CC=C(C)C)C1=CC(=O)c2c(O)ccc(O)c2C1=O)NC(=O)CCCC[C@@H]1CCSC(c2cccc(Cl)c2Cl)S1 (some centres not stated) | 4.5 | 16.6 | 98.2 | 16.1 | 1.7 | –
COC(=O)[C@H](CS[C@H](CC=C(C)C)C1=CC(=O)c2c(O)ccc(O)c2C1=O)NC(=O)CCCC[C@@H]1CCSC(c2ccccc2)S1 (some centres not stated) | 6.33 | 6.09 | 95.5 | 8.6 | 11.5 | –
COC(=O)[C@H](CS[C@H](CC=C(C)C)C1=CC(=O)c2c(O)ccc(O)c2C1=O)NC(=O)CCCC[C@@H]1CCSC(c2cccc(C(F)(F)F)c2)S1 (some centres not stated) | 3.53 | 4.34 | 83.8 | 4.59 | 3.66 | –
COC(=O)[C@H](CS[C@H](CC=C(C)C)C1=CC(=O)c2c(O)ccc(O)c2C1=O)NC(=O)CCCC[C@@H]1CCSC(c2ccc([N+](=O)[O-])cc2)S1 (some centres not stated) | 5.34 | 25.9 | 94.2 | 21.8 | 17 | –
COC(=O)[C@H](CS[C@H](CC=C(C)C)C1=CC(=O)c2c(O)ccc(O)c2C1=O)NC(=O)CCCC[C@@H]1CCSC(c2ccc(C(F)(F)F)cc2)S1 (some centres not stated) | 4.58 | 7.15 | 84.9 | 6.49 | 2.32 | –
COc1cc2ncnc(Nc3ccc(F)c(Cl)c3)c2cc1OCCCN1CCOCC1 [GEFITINIB] | – | – | – | – | – | Activity [30]: 89%; Activity [31]: 1.45%; Activity [32]: 0%
COC(=O)[C@H](CS[C@H](CC=C(C)C)C1=CC(=O)c2c(O)ccc(O)c2C1=O)NC(=O)CCCC[C@@H]1CCSC(C2CCCCC2)S1 (some centres not stated) | 11.6 | 11.5 | 86.1 | 18.3 | 13.3 | –
COC(=O)[C@H](CS[C@H](CC=C(C)C)C1=CC(=O)c2c(O)ccc(O)c2C1=O)NC(=O)CCCC[C@@H]1CCSC(c2cccc(Br)c2)S1 (some centres not stated) | 3.53 | 11.8 | 96.7 | 15.2 | 7.4 | –
COC(=O)[C@H](CS[C@H](CC=C(C)C)C1=CC(=O)c2c(O)ccc(O)c2C1=O)NC(=O)CCCC[C@@H]1CCSC(c2ccc(OC)cc2)S1 (some centres not stated) | 2.81 | 6.44 | 86.2 | 2.34 | 2.71 | –
COC(=O)[C@H](CS[C@H](CC=C(C)C)C1=CC(=O)c2c(O)ccc(O)c2C1=O)NC(=O)CCCC[C@@H]1CCSC(c2ccc(C(C)C)cc2)S1 (some centres not stated) | 4.93 | 4.21 | 77.5 | 4.21 | 4.08 | –
COC(=O)[C@H](CS[C@H](CC=C(C)C)C1=CC(=O)c2c(O)ccc(O)c2C1=O)NC(=O)CCCC[C@@H]1CCSC(c2ccc(Br)cc2)S1 (some centres not stated) | 3.27 | 13.2 | 88.8 | 18.1 | 4.68 | –
